Test systems include MALME-3M melanoma; A498 renal; TK-10 renal; MCF7 breast; CAKI-1 renal; RPMI-8226 leukemia; A549 NSCLC; M14 melanoma; SF-539 CNS; RXF 393 renal; HT29 colon; UACC-62 melanoma; HL-60(TB) leukemia.
What all share (assay): NCI-60 cell line screen, 48 h

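Exposure lasted 48 hours, with cells grown in 96-well plates and compounds tested at five concentrations. GI50 marks 50% less growth. TGI: total growth inhibition.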

In the case of `O=C(CC(Cl)=C(Cl)Cl)c1ccccc1`, the TGI is above 100 µM with MALME-3M melanoma; above 100 µM in the experiment with A498 renal; above 100 µM in the experiment on TK-10 renal; above 100 µM in the experiment on MCF7 breast; 53.6 µM in the experiment on CAKI-1 renal; 41.9 µM with RPMI-8226 leukemia. In addition, the TGI in the experiment with A549 NSCLC was above 100 µM; in the experiment with M14 melanoma, above 100 µM; in the experiment with SF-539 CNS, above 100 µM; with RXF 393 renal, 63.8 µM; in the experiment on HT29 colon, above 100 µM; in the experiment on UACC-62 melanoma, above 100 µM. In the experiment with HL-60(TB) leukemia, this compound came in with a TGI above 100 µM.
`C[C@@H]1CC[C@@]2(OC1)O[C@H]1C[C@H]3[C@@H]4CC[C@H]5C[C@@H](OC6OC(CO)C(OC7OC(CO)C(O)C(OC8OCC(O)C(O)C8O)C7OC7OC(CO)C(O)C(O)C7O)C(O)C6O)[C@H](O)C[C@]5(C)[C@H]4CC[C@]3(C)[C@H]1[C@@H]2C` (stereo partly specified): the TGI is 30.8 µM with MALME-3M melanoma; 29.7 µM in the experiment with A498 renal; above 100 µM in the experiment with TK-10 renal; 1.68 µM in the experiment with MCF7 breast; 12.5 µM in the experiment on CAKI-1 renal; 30.1 µM with RPMI-8226 leukemia. Moreover, the TGI in the experiment on A549 NSCLC turned out to be 10.9 µM; in the experiment on M14 melanoma it was 32 µM; in the experiment on SF-539 CNS it was 12.8 µM; in the experiment with RXF 393 renal it was 27.1 µM; in the experiment on HT29 colon, 13.3 µM; in the experiment with UACC-62 melanoma, 47.3 µM. Further, in the experiment on HL-60(TB) leukemia, the TGI is 9.54 µM.
For `O=C(O)C1CCCCN1c1ccccc1[N+](=O)[O-]` (stereo unspecified), the TGI in the experiment on MALME-3M melanoma, with TK-10 renal, in the experiment on CAKI-1 renal, in the experiment on RPMI-8226 leukemia, with A549 NSCLC and with M14 melanoma was above 100 µM throughout. In addition, the TGI in the experiment with SF-539 CNS, in the experiment on RXF 393 renal, in the experiment on HT29 colon, in the experiment on UACC-62 melanoma and in the experiment with HL-60(TB) leukemia was above 100 µM throughout.
Turning to `O=c1oc2cc(O)ccc2c(O)c1Cc1c(O)c2ccc(O)cc2oc1=O`, the TGI in the experiment on MALME-3M melanoma, in the experiment with A498 renal, with TK-10 renal, in the experiment with MCF7 breast, in the experiment with CAKI-1 renal and with A549 NSCLC was above 100 µM in each case. Further, the TGI in the experiment on M14 melanoma, in the experiment with SF-539 CNS, in the experiment with RXF 393 renal, in the experiment on HT29 colon, in the experiment on UACC-62 melanoma and in the experiment with HL-60(TB) leukemia was above 100 µM in each case.
Take `CN(Cc1cnc2c(N)nc(N)nc2n1)c1ccc(Cl)cc1`: the TGI with MALME-3M melanoma is above 100 µM; in the experiment with A498 renal, 98.5 µM; with TK-10 renal, above 100 µM; in the experiment with MCF7 breast it was above 100 µM; with CAKI-1 renal it was above 100 µM; in the experiment with RPMI-8226 leukemia, above 100 µM. Moreover, the TGI was above 100 µM in the experiment with M14 melanoma; 70.9 µM in the experiment with SF-539 CNS; 61.5 µM in the experiment on RXF 393 renal; above 100 µM with UACC-62 melanoma; above 100 µM in the experiment on HL-60(TB) leukemia.
As for `BrCC[N+]12CC[N+](CCBr)(CC1)C2`, the TGI in the experiment with MALME-3M melanoma, in the experiment on A498 renal, in the experiment with TK-10 renal, with MCF7 breast, with CAKI-1 renal and in the experiment with RPMI-8226 leukemia was above 100 µM in each case. Moreover, the TGI with A549 NSCLC, in the experiment on M14 melanoma, with SF-539 CNS, in the experiment with RXF 393 renal, with HT29 colon and with UACC-62 melanoma was above 100 µM throughout. Besides, in the experiment with HL-60(TB) leukemia, the TGI is above 100 µM.
With `CCn1cnnc1-c1nsc2ccccc12`, the TGI in the experiment with TK-10 renal, in the experiment on RPMI-8226 leukemia, in the experiment on A549 NSCLC, in the experiment with M14 melanoma, in the experiment with SF-539 CNS and with RXF 393 renal was above 100 µM each time. For the same compound, the TGI in the experiment with HT29 colon, in the experiment on UACC-62 melanoma and in the experiment on HL-60(TB) leukemia was above 100 µM throughout.
As to `O=[N+]([O-])c1ccc(NNN=Nc2ccc(-c3nc4ccccc4s3)cc2)c([N+](=O)[O-])c1`, the TGI in the experiment with MALME-3M melanoma was 77.6 µM; with A498 renal, 20.5 µM; with TK-10 renal, above 100 µM; in the experiment on CAKI-1 renal, above 100 µM; in the experiment with A549 NSCLC it was above 100 µM; with M14 melanoma, 35.2 µM. The TGI in the experiment on SF-539 CNS was 42.4 µM; in the experiment with RXF 393 renal, 50.5 µM; with HT29 colon it was 41.3 µM; with UACC-62 melanoma, 27.7 µM; in the experiment on HL-60(TB) leukemia, 69.9 µM.
`CC(=O)Nc1cccc(N=NN(C)C)c1`: the TGI with MALME-3M melanoma, with A498 renal, in the experiment on MCF7 breast, in the experiment with CAKI-1 renal, in the experiment with RPMI-8226 leukemia and with A549 NSCLC was above 100 µM throughout. The TGI with SF-539 CNS, in the experiment with RXF 393 renal, with HT29 colon, with UACC-62 melanoma and in the experiment with HL-60(TB) leukemia was above 100 µM throughout.
As for `O=C(N/N=C/c1cc(Br)cc(Br)c1[O-])c1ccccc1O.O=C(N/N=C/c1cc(Br)cc(Br)c1[O-])c1ccccc1O.[Co+2]`, the TGI was 18.5 µM in the experiment on MALME-3M melanoma; 14.1 µM in the experiment on TK-10 renal; 5.93 µM in the experiment on CAKI-1 renal; 12.6 µM in the experiment with A549 NSCLC; 2.73 µM with M14 melanoma; 4.66 µM in the experiment with SF-539 CNS. The TGI in the experiment with RXF 393 renal was determined as 10.5 µM; in the experiment on HT29 colon it was 17.7 µM; with UACC-62 melanoma, 1.78 µM; in the experiment with HL-60(TB) leukemia, 0.906 µM.
`NS(=O)(=O)c1ccc(/C=C/c2ccc(O)cc2)cc1`: the TGI with MALME-3M melanoma is 78.1 µM; in the experiment on A498 renal it was above 100 µM; with TK-10 renal, above 100 µM; with MCF7 breast it was above 100 µM; with CAKI-1 renal it was 32.6 µM; in the experiment on RPMI-8226 leukemia it was 39.3 µM. The TGI is 55.4 µM with A549 NSCLC; above 100 µM in the experiment with M14 melanoma; 37.7 µM with SF-539 CNS; above 100 µM with RXF 393 renal; 35.1 µM in the experiment with HT29 colon; 20.4 µM in the experiment with UACC-62 melanoma. The same compound showed a TGI with HL-60(TB) leukemia above 100 µM. The GI50 in the experiment on CAKI-1 renal was 5.59 µM; with RPMI-8226 leukemia, 7.09 µM; in the experiment on A549 NSCLC, 13.9 µM; with SF-539 CNS, 7.4 µM; in the experiment with HT29 colon, 17.8 µM; with UACC-62 melanoma, 3.4 µM. Also, in the experiment with HL-60(TB) leukemia, the GI50 was 4.35 µM.
For `CCC1NC(N=Nc2ccc([N+](=O)[O-])cc2)(P(=O)(OC(C)C)OC(C)C)OC1=O` (stereo unspecified), the TGI in the experiment with MALME-3M melanoma, in the experiment with A498 renal, with TK-10 renal, in the experiment on CAKI-1 renal, in the experiment with RPMI-8226 leukemia and in the experiment on A549 NSCLC was above 100 µM throughout. Besides, the TGI in the experiment on M14 melanoma, with SF-539 CNS, in the experiment on HT29 colon, with UACC-62 melanoma and with HL-60(TB) leukemia was above 100 µM in each case.
Regarding `O=c1oc2c(Cl)cc(Cl)cc2cc1C1=CSC2=NCCN12`, the TGI is above 100 µM in the experiment on TK-10 renal; 88.9 µM with MCF7 breast; above 100 µM with CAKI-1 renal; above 100 µM in the experiment on RPMI-8226 leukemia; above 100 µM in the experiment with A549 NSCLC; above 100 µM in the experiment on M14 melanoma. Moreover, the TGI in the experiment on SF-539 CNS, in the experiment on RXF 393 renal, with HT29 colon, with UACC-62 melanoma and with HL-60(TB) leukemia was above 100 µM throughout.
Consider `CCOC(=O)c1nnc2c(C#N)c(-c3ccccc3)c(C)n2c1N`, for which the TGI in the experiment on MALME-3M melanoma was 65.2 µM; in the experiment on A498 renal, 79.4 µM; in the experiment with TK-10 renal, above 100 µM; with MCF7 breast it was above 100 µM; with CAKI-1 renal, above 100 µM; in the experiment with RPMI-8226 leukemia, 53.9 µM. The TGI is above 100 µM in the experiment on A549 NSCLC; above 100 µM in the experiment with M14 melanoma; above 100 µM in the experiment with SF-539 CNS; above 100 µM with RXF 393 renal; above 100 µM in the experiment on HT29 colon; 66.6 µM in the experiment with UACC-62 melanoma.
`CC(C)NC(=O)OCc1c2c(n(C)c1COC(=O)NC(C)C)-c1ccccc1CC2`: the TGI in the experiment with MALME-3M melanoma was determined as 19.2 µM; in the experiment with A498 renal it was 61.7 µM; with MCF7 breast it was 22.4 µM; in the experiment on CAKI-1 renal, 25.5 µM; with RPMI-8226 leukemia, 17.3 µM; with A549 NSCLC it was 89.9 µM. Further, the TGI with SF-539 CNS is 34.3 µM; with RXF 393 renal it was 27.3 µM; in the experiment with HT29 colon it was 30.3 µM; in the experiment on UACC-62 melanoma, 25.5 µM; in the experiment with HL-60(TB) leukemia, above 32 µM.
Consider `c1ccc([I+]c2ccccc2)cc1`, for which the TGI in the experiment on MALME-3M melanoma, in the experiment with A498 renal, in the experiment on TK-10 renal, with MCF7 breast, in the experiment on CAKI-1 renal and with RPMI-8226 leukemia was above 100 µM throughout. Also, the TGI in the experiment with A549 NSCLC, in the experiment with M14 melanoma, in the experiment with SF-539 CNS, in the experiment on RXF 393 renal, with HT29 colon and with HL-60(TB) leukemia was above 100 µM each time.
Consider `CC1=CC2c3cccc4[nH]cc(c34)CC2N(C)C1` (stereo unspecified), for which the TGI in the experiment with MALME-3M melanoma, in the experiment with A498 renal, in the experiment on MCF7 breast, in the experiment with CAKI-1 renal, in the experiment with RPMI-8226 leukemia and in the experiment on A549 NSCLC was above 100 µM in each case. The TGI in the experiment on SF-539 CNS, with RXF 393 renal, in the experiment on HT29 colon, in the experiment with UACC-62 melanoma and in the experiment with HL-60(TB) leukemia was above 100 µM throughout.
With `CC(Cl)CC(=O)OCC1CCCN2CCCCC12` (stereo unspecified), the TGI in the experiment with MALME-3M melanoma, in the experiment on A498 renal, in the experiment on TK-10 renal, in the experiment on MCF7 breast, in the experiment on CAKI-1 renal and in the experiment with RPMI-8226 leukemia was above 100 µM throughout. Also, the TGI in the experiment on A549 NSCLC, in the experiment on M14 melanoma, in the experiment with SF-539 CNS, in the experiment with RXF 393 renal, in the experiment on HT29 colon and in the experiment on UACC-62 melanoma was above 100 µM each time. For the same compound, in the experiment on HL-60(TB) leukemia, the TGI is above 100 µM.
Turning to `Cc1ccc2c(=O)c3ccccc3sc2c1`, the TGI in the experiment with MALME-3M melanoma, in the experiment with TK-10 renal, in the experiment with CAKI-1 renal, in the experiment on RPMI-8226 leukemia, in the experiment with A549 NSCLC and with M14 melanoma was above 100 µM throughout. Moreover, the TGI in the experiment with SF-539 CNS, in the experiment on RXF 393 renal, in the experiment with HT29 colon, in the experiment with UACC-62 melanoma and in the experiment on HL-60(TB) leukemia was above 100 µM each time.

(Values after PubChem BioAssay (NCI).)
